One series concerns the target T1, SGLT2 (Homo sapiens, UniProt P31639).
T1 sequence (P31639 1-672): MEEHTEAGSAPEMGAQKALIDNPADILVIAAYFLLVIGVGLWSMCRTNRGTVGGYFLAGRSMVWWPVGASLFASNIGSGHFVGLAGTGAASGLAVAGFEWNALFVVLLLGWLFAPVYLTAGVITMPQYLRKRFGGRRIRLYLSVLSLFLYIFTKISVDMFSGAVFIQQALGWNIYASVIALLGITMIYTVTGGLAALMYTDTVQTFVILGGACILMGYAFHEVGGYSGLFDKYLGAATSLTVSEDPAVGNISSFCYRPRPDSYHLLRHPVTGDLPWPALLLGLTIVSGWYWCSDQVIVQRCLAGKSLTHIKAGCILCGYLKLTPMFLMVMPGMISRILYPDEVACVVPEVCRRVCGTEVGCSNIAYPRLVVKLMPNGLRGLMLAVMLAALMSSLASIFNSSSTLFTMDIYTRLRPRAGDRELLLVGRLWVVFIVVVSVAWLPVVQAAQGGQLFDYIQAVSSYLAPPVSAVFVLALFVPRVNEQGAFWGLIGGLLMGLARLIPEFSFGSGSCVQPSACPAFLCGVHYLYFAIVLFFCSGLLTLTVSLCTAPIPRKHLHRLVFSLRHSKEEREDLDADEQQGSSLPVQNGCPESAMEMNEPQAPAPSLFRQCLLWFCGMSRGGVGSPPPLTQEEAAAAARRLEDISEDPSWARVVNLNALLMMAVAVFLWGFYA
Conditions: cited from earlier work.

The nature of series [1]: stress study on physical stability and chemical stability (80° C., one week). In kind it is physicochemical. Conditions: for Chemical purity: HPLC. The procedure: The stress study on the physical stability and chemical stability of the diethylamine solvate of the compound of formula (I) and the amorphous compound of formula (I) were carried out. The diethylamine solvate of the compound of formula (I) obtained in Example 3 and the amorphous compound of formula (I) were placed in glass vials respectively in duplicate, about 10 mg each sample. These samples for stability test were placed in an incubator at 80° C. for one week. After being placed for one week, one sample was used for the chemical purity analysis by HPLC method. The other sample was used for the crystal characterization by XRPD.

In another series the target is T2, SGLT1 (Homo sapiens, UniProt P13866).
T2 sequence (P13866 1-664): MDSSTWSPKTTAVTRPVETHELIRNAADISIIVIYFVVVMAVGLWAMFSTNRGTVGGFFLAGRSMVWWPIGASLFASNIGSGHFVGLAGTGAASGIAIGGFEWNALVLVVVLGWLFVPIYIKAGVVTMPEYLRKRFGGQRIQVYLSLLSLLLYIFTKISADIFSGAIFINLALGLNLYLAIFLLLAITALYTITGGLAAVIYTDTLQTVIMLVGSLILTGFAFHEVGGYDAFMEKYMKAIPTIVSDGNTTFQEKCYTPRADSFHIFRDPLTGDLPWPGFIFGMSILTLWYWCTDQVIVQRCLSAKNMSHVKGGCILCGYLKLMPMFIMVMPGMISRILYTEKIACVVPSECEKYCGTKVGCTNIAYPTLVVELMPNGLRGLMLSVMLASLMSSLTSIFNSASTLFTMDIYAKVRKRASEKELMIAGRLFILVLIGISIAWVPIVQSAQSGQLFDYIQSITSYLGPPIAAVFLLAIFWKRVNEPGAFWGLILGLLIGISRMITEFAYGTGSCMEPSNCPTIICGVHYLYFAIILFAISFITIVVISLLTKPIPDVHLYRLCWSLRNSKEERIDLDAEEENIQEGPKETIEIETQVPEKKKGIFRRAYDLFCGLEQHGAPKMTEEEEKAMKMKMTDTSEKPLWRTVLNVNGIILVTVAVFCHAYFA
As to conditions: cited from earlier work.

Take `CCc1ccc([C@]23OC[C@](CO)(O2)[C@@H](O)[C@H](O)[C@H]3O)cc1Cc1ccc2c(c1)OCCO2` [compound of formula (I), (1S,2S,3S,4R,5S)-5-(3-((2,3-dihydrobenzo[b][1,4]dioxin-6-yl)methyl)-4-ethylphenyl)-1-(hydroxymethyl)-6,8-dioxabicyclo[3.2.1]octane-2,3,4-triol]: on SGLT2, the “inhibitory effect on SGLT2” value is on record as “very significant inhibitory effect”. In addition, in series [1] (80° C., stress stability test), the “degradation at high temperature” value is “changed and degraded immediately”. Besides, the Chemical purity in series [1] (After being placed for one week at 80° C.) came out at 90.2%; in series [1] (Initial state of the samples) it was 95.1%. For the same molecule, the “inhibitory effect on SGLT1” value on SGLT1 is listed as “significant inhibitory effect”.

(Values after patent publication US10519183B2, “Amine solvate of sodium-glucose linked transporter inhibitor, and preparation method and application thereof” (Youngene Therapeutics Co., Ltd., priority 2016, dated 2019).)
